# Measurements from patent US20090291153A1, “Health food, Method for producing the same and dried Product and Extract” (priority 2004, published 2009).
# How the values were obtained:
# [1] = system: pancreatic acinar carcinoma AR42J-B13 cells; conditions: cited from earlier work
# K-ras-NRK cells = assay: Morphological change of K-ras-NRK cells; type: cell-based; conditions: final concentration 0.1 μg/ml, three days, FIG. 4
# Excerpt: Conophylline is known to induce a morphological change of K-ras-NRK cells. Thus, it was examined whether an extract of Ervatamia microphylla leaves induces morphological changes of K-ras-NRK cells. It is also known that leaves of the Malaysian Tabernaemontana contains conophylline (Org. Biomol. Chem. 1: 1292-1297, 2003). Thus, it was examined that whether an extract of leaves of crape jasmine, the Japanese Tabernaemontana divaricata, also induces morphological changes in K-ras-NRK cells. An extract of each plant was prepared, in the same manner as described in Example 1, by extracting the active ingredient contained in the leaves with methanol, then removing solids by suction filtration, followed by concentring and drying, and dissolving the resulting powder into methanol.
# 500 μl of a suspension ([…] per culture medium (DMEM containing 5% FBS, 0.6 g/l glutamine, 0.2 g/l kanamycin, 2.25 g/l NaHCO3)) of K-Ras-NRK cells was added to each well of 24-well plastic plates at 2.0×10^4 cells/well, and the plates were incubated at 37° C. under 5% CO2. The next day, conophylline (final concentration: 0.1 μg/ml), an extract of Ervatamia microphylla leaves (final concentration: 10 μg/ml), and an extract of crape jasmine leaves (final concentration: 10 μg/ml) were added to the culture medium, which was incubated at 37° C. under the condition of 5% CO2 for three days. […]
# [2] = system: streptozotocin-induced diabetic rats; assay: Blood glucose levels of streptozotocin-administered rats; type: in vivo, Wistar rats; conditions: 5 μg/g BW subcutaneously for seven consecutive days from day 1 after streptozotocin 85 μg/g BW i.p.; P<0.05 / P<0.01 vs Control
# Description: Ten 1-day-old Wistar rats (purchased from Japan SLC, Shizuoka, Japan) were intraperitoneally injected with streptozotocin (purchased from Wako Pure Chemical Industries, Ltd., dissolved in […] citrate buffer (pH 4.5)) at 85 μg/g BW per rat. Streptozotocin decreases insulin production by destroying pancreatic cells, thereby inducing diabetes. The day of streptozotocin injection was defined as day 0. Starting from the next day (day 1), five rats were injected subcutaneously with a solution (ethanol) of conophylline at 5 μg/g BW for seven consecutive days and their blood glucose levels were measured at a predetermined time daily. Five rats in the control group received the same volume of solvent (control).
# [3] = system: AR42J cells (ATCC CRL 1492); assay: Morphological change of AR42J cells as marker of induced differentiation into insulin-producing cells; type: cell-based; conditions: final concentration 0.1 μg/ml, three days, FIG. 1B
# Description: Thus, it was examined whether an extract of Ervatamia microphylla can induce AR42J cells to differentiate into insulin-producing cells. It should be noted that, since characteristic morphological changes of cells are observed as differentiation into insulin-producing cells is induced, morphological changes in AR42J cell were examined as a marker of differentiation induction in this Example. AR42J cells were cultured in the media prepared by sterilizing Dulbecco modification Eagle' medium (DMEM; Nissui Pharmaceutical Co., Ltd.) by filtration after its pH was adjusted to 7.4 in the presence of 20 mM HEPES-NaOH and adding 0.6 g/l glutamine (Kanto Chemical Co., Inc: Tokyo, Japan), 0.2 g/l kanamycin (Sigma Chemical Science; Sigma: St.Louis, Mo., USA), 100 unit/ml penicillin G (Sigma), 5 mM NaHCO3, and 10% fetal bovine serum (FBS; Sigma).
# 500 μl of a suspension of AR42J cells (4.0×10^5 cells/ml per culture medium) was plated into each well of 24-well plastic plates (Corning) at 2×10^5 cells/well and cultured under the conditions of 37° C. and 5% CO2. […]
smiles,measurement,setting,value
CC[C@@]12CC(C(=O)OC)=C3Nc4cc5c(cc4[C@@]34CCN(C[C@H]3O[C@H]31)[C@@H]24)[C@@H]1[C@H](O5)[C@@H](O)[C@@]2(CC)CC(C(=O)OC)=C3Nc4c(cc(O)c(OC)c4OC)[C@@]34CCN1[C@@H]24 [conophylline],induction of differentiation into insulin-producing cells,"[1]; Abstracts of the 45th Annual Meeting of the Japan Diabetes Society, 2002",induces differentiation of pancreatic acinar carcinoma AR42J-B13 cells into insulin-producing cells
same,insulin release from the induced insulin-producing cells,[1]; same literature condition,do not release insulin from the cells
same,morphological change of K-ras-NRK cells,K-ras-NRK cells,undergo a morphological change
same,blood glucose level compared with the control,[2],apparent decrease in blood glucose levels
same,morphological change of AR42J cells (induction of differentiation into insulin-producing cells),[3],undergo a morphological change from small spherical cells to flat cells partly with processes
